From patent publication US20150105252A1, “SUBSTITUTED PYRAZOLES AS HERBICIDES” (E I DU PONT DE NEMOURS AND COMPANY, priority 2013, published 2015)

How the values were obtained:
barnyardgrass [1] = experiment: Test A preemergence; type: in vivo, Echinochloa crus-galli; conditions: 0 to 100 scale
Method in brief: (§1)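 Seeds were sown in a loam soil–sand blend and given a directed soil spray preemergence; postemergence plants at 2–10 cm, one- to two-leaf stage, were sprayed with compound in non-phytotoxic solvent with surfactant. After about 10 days in a greenhouse, injury was visually rated against untreated controls (0 = no effect, 100 = complete control).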

barnyardgrass [2] = experiment: Test A postemergence; type: in vivo, Echinochloa crus-galli; conditions: Postemergence
Method in brief: as §1

crabgrass, large [3] = experiment: Test A postemergence; type: in vivo, Digitaria sanguinalis
Method in brief: as §1

morningglory [4] = experiment: Test A postemergence; type: in vivo, Ipomoea spp.
Method in brief: as §1

pigweed = experiment: Test A postemergence; type: in vivo, Amaranthus retroflexus
Method in brief: as §1

corn = experiment: Test A postemergence; type: in vivo, Zea mays
Method in brief: as §1

crabgrass, large [5] = experiment: Test C preemergence; type: in vivo, Digitaria sanguinalis
Method in brief: (§2)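 Seeds sown in loam–sand blend and treated preemergence with test chemicals in non-phytotoxic solvent with surfactant; postemergence plants in peat-based medium, treated at 2–18 cm (1- to 4-leaf stage). Greenhouse 13 to 15 days, then visual rating versus controls, 0 (no effect) to 100 (complete control).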

morningglory [6] = experiment: Test C preemergence; type: in vivo, Ipomoea coccinea
Method in brief: as §2

nutsedge, yellow = experiment: Test C preemergence; type: in vivo, Cyperus esculentus; conditions: for Nutsedge, Yellow plant response rating / Plant response rating, Nutsedge, Yellow: preemergence; for Plant response rating, Nutsedge, Yellow: 62 g ai/ha, scale 0 to 100, 0 = no effect, 100 = complete control
Method in brief: as §2

velvetleaf = experiment: Test C preemergence; type: in vivo, Abutilon theophrasti
Method in brief: as §2

ryegrass, Italian = experiment: Test C postemergence; type: in vivo, Lolium multiflorum; conditions: for Ryegrass, Italian plant response rating / Plant response rating, Ryegrass, Italian: postemergence; for Ryegrass, Italian plant response rating: 62 g ai/ha, scale 0 to 100
From the text: (§3) Seeds of plant species selected from blackgrass (Alopecurus myosuroides), ryegrass, Italian (Italian ryegrass, Lolium multiflorum), wheat (winter wheat, Triticum aestivum), galium (catchweed bedstraw, Galium aparine), corn (Zea mays), crabgrass, large (large crabgrass, Digitaria sanguinalis), foxtail, giant (giant foxtail, Setaria faberii), johnsongrass (Sorghum halepense), lambsquarters (Chenopodium album), morningglory (Ipomoea coccinea), nutsedge, yellow (yellow nutsedge, Cyperus esculentus), pigweed (redroot pigweed, Amaranthus retroflexus), ragweed (common ragweed, Ambrosia elation), soybean (Glycine max), barnyardgrass (Echinochloa crus-galli), oilseed rape (Brassica napus), waterhemp (common waterhemp, Amaranthus rudis), oat, wild (wild oat, Avena fatua), kochia (Kochia scoparia), Surinam grass (Brachiaria decumbens), foxtail, green (green foxtail, Setaria viridis), goosegrass (Eleusine indica), bromegrass, downy (downy bromegrass, Bromus tectorum), nightshade (eastern black nightshade, Solanum ptycanthum), cocklebur (common cocklebur, Xanthium strumarium), cupgrass, woolly (woolly cupgrass, Eriochloa villosa), bermudagrass (Cynodon dactylon), sunflower, (common oilseed sunflower, Helianthus annuus), Russian thistle (Salsola kali), and velvetleaf (Abutilon theophrasti) were planted into a blend of loam soil and sand and treated preemergence with test chemicals formulated in a non-phytotoxic solvent mixture which included a surfactant.
(§4) At the same time, plants selected from these crop and weed species and also chickweed (common chickweed, Stellaria media), canarygrass (littleseed canarygrass, Phalaris minor), and deadnettle (henbit deadnettle, Lamium amplexicaule), were planted in pots containing Redi-Earth® planting medium (Scotts Company, 14111 Scottslawn Road, Marysville, Ohio 43041) comprising spaghnum peat moss, vermiculite, wetting agent and starter nutrients and treated with postemergence applications of test chemicals formulated in the same manner. Plants ranged in height from 2 to 18 cm (1- to 4-leaf stage) for postemergence treatments. Treated plants and controls were maintained in a greenhouse for 13 to 15 days, after which time all species were compared to controls and visually evaluated. Plant response ratings, summarized in Table C, are based on a scale of 0 to 100 where 0 is no effect and 100 is complete control. A dash (-) response means no test result.

soybean = experiment: Test C postemergence; type: in vivo, Glycine max; conditions: for Soybean plant response rating / Plant response rating, Soybean: postemergence; for Soybean plant response rating: 62 g ai/ha, scale 0 to 100
Method in brief: as §2

oat, wild = experiment: Test C postemergence; type: in vivo, Avena fatua; conditions: for Oat, Wild plant response rating: scale 0 to 100
Method in brief: as §2

kochia = experiment: Test C postemergence; type: in vivo, Kochia scoparia; conditions: for Kochia plant response rating: scale 0 to 100
From the text: as §3, §4

barnyardgrass [7] = experiment: Test C preemergence; type: in vivo, Echinochloa crus-galli
Method in brief: as §2

oilseed rape = experiment: Test C postemergence; type: in vivo, Brassica napus; conditions: for Oilseed Rape plant response rating: scale 0 to 100
From the text: as §3, §4

[8] = Postemergence, 1000 g ai/ha, visual rating after approx. 10 days, 0 to 100 scale (0 no effect, 100 complete control)
[9] = preemergence, 31 g ai/ha, scale 0 to 100 (0 no effect, 100 complete control), 13 to 15 days
[10] = preemergence, 62 g ai/ha, 13 to 15 days, scale 0 to 100, 0 = no effect, 100 = complete control
[11] = preemergence, 125 g ai/ha, scale 0 to 100, 0 is no effect, 100 is complete control
[12] = 31 g ai/ha, scale 0 to 100 (0 no effect, 100 complete control), 13 to 15 days
[13] = 125 g ai/ha, scale 0 to 100, 0 is no effect, 100 is complete control
[14] = 250 g ai/ha, scale 0 to 100 (0 no effect, 100 complete control)
[15] = 125 g ai/ha, scale 0 to 100, 0 no effect, 100 complete control
[16] = postemergence, 250 g ai/ha, scale 0 to 100 (0 no effect, 100 complete control)
[17] = postemergence, 125 g ai/ha, scale 0 to 100, 0 no effect, 100 complete control
[18] = Postemergence, 500 g ai/ha, visual rating after approx. 10 days, 0 to 100 scale (0 no effect, 100 complete control)
[19] = postemergence, 125 g ai/ha, about 10 days, visual rating on 0 to 100 scale (0 no effect, 100 complete control)
[20] = Preemergence, 16 g ai/ha, scale 0 to 100

Structure (SMILES): Cc1cc(C(=O)NCC(F)(F)F)nn1Cc1ccnc(C(F)(F)F)c1 [Compound 74]
- Barnyardgrass plant response rating (barnyardgrass [1]; Preemergence, 1000 g ai/ha, 0 no effect, 100 complete control): 100
- Barnyardgrass plant response rating (barnyardgrass [2]; 1000 g ai/ha, visual rating after approx. 10 days, 0 to 100 scale (0 no effect, 100 complete control)): 90
- Crabgrass, Large plant response rating (crabgrass, large [3]; [8]): 100
- Morningglory plant response rating (morningglory [4]; [8]): 100
- Pigweed plant response rating (pigweed; [8]): 100
- Corn plant response rating (corn; [8]): 100
- Plant response rating (scale of 0 to 100), Crabgrass, Large (crabgrass, large [5]; Preemergence, 250 g ai/ha): 100
- Crabgrass, Large plant response rating (crabgrass, large [5]; [9]): 98
- Plant response rating, Crabgrass, Large (crabgrass, large [5]; [10]): 100
- Crabgrass, Large plant response rating (crabgrass, large [5]; [11]): 100
- Plant response rating (scale of 0 to 100), Morningglory (morningglory [6]; Preemergence, 250 g ai/ha): 100
- Morningglory plant response rating (morningglory [6]; [9]): 75
- Plant response rating, Morningglory (morningglory [6]; [10]): 100
- Morningglory plant response rating (morningglory [6]; [11]): 100
- Plant response rating (scale of 0 to 100), Nutsedge, Yellow (nutsedge, yellow; Preemergence, 250 g ai/ha): 98
- Nutsedge, Yellow plant response rating (nutsedge, yellow; [12]): 15
- Plant response rating, Nutsedge, Yellow (nutsedge, yellow; 13 to 15 days): 60
- Nutsedge, Yellow plant response rating (nutsedge, yellow; [13]): 80
- Plant response rating (scale of 0 to 100), Velvetleaf (velvetleaf; Preemergence, 250 g ai/ha): 100
- Velvetleaf plant response rating (velvetleaf; [9]): 45
- Plant response rating, Velvetleaf (velvetleaf; [10]): 65
- Velvetleaf plant response rating (velvetleaf; [11]): 100
- Ryegrass, Italian plant response rating (ryegrass, Italian): 0
- Plant response rating, Ryegrass, Italian (ryegrass, Italian; [14]): 0
- Plant response rating, Ryegrass, Italian (ryegrass, Italian; [15]): 0
- Soybean plant response rating (soybean): 80
- Plant response rating, Soybean (soybean; [14]): 85
- Plant response rating, Soybean (soybean; [15]): 85
- Oat, Wild plant response rating (oat, wild; Postemergence, 31 g ai/ha): 0
- Oat, Wild plant response rating (oat, wild; postemergence, 62 g ai/ha): 0
- Plant response rating, Oat, Wild (oat, wild; [16]): 5
- Plant response rating, Oat, Wild (oat, wild; [17]): 5
- Kochia plant response rating (kochia; Postemergence, 31 g ai/ha): 20
- Kochia plant response rating (kochia; postemergence, 62 g ai/ha): 50
- Plant response rating, Kochia (kochia; [16]): 90
- Plant response rating, Kochia (kochia; [17]): 80

Structure (SMILES): CCCNC(=O)c1cc(CC)n(Cc2ccnc(C(F)(F)F)c2)n1 [Compound 75]
- Barnyardgrass plant response rating (barnyardgrass [1]; Preemergence, 500 g ai/ha, 0 no effect, 100 complete control): 100
- Barnyardgrass plant response rating (barnyardgrass [1]; preemergence, 125 g ai/ha, visual injury, approx. 10 days): 100
- Barnyardgrass plant response rating (barnyardgrass [2]; 125 g ai/ha, 0 to 100 scale, 0 no effect, 100 complete control): 90
- Barnyardgrass plant response rating (barnyardgrass [2]; 500 g ai/ha, visual rating after approx. 10 days, 0 to 100 scale (0 no effect, 100 complete control)): 90
- Crabgrass, Large plant response rating (crabgrass, large [3]; [18]): 100
- Crabgrass, Large plant response rating (crabgrass, large [3]; [19]): 100
- Morningglory plant response rating (morningglory [4]; [18]): 100
- Morningglory plant response rating (morningglory [4]; [19]): 100
- Pigweed plant response rating (pigweed; [18]): 100
- Pigweed plant response rating (pigweed; [19]): 100
- Corn plant response rating (corn; [18]): 90
- Corn plant response rating (corn; [19]): 80
- Plant response rating, Crabgrass, Large (crabgrass, large [5]; [20]): 100
- Crabgrass, Large plant response rating (crabgrass, large [5]; [9]): 100
- Plant response rating, Crabgrass, Large (crabgrass, large [5]; [10]): 100
- Crabgrass, Large plant response rating (crabgrass, large [5]; [11]): 100
- Nutsedge, Yellow plant response rating (nutsedge, yellow; [12]): 55
- Plant response rating, Nutsedge, Yellow (nutsedge, yellow; 13 to 15 days): 75
- Nutsedge, Yellow plant response rating (nutsedge, yellow; [13]): 85
- Plant response rating, Barnyardgrass (barnyardgrass [7]; [20]): 60
- Barnyardgrass plant response rating (barnyardgrass [7]; [9]): 100
- Plant response rating, Barnyardgrass (barnyardgrass [7]; [10]): 100
- Barnyardgrass plant response rating (barnyardgrass [7]; [11]): 100
- Plant response rating, Velvetleaf (velvetleaf; [20]): 60
- Velvetleaf plant response rating (velvetleaf; [9]): 75
- Plant response rating, Velvetleaf (velvetleaf; [10]): 100
- Velvetleaf plant response rating (velvetleaf; [11]): 100
- Plant response rating (scale of 0 to 100), Ryegrass, Italian (ryegrass, Italian; Postemergence, 16 g ai/ha): 5
- Ryegrass, Italian plant response rating (ryegrass, Italian): 5
- Plant response rating, Ryegrass, Italian (ryegrass, Italian; [15]): 10
- Plant response rating (scale of 0 to 100), Soybean (soybean; Postemergence, 16 g ai/ha): 40
- Soybean plant response rating (soybean): 75
- Plant response rating, Soybean (soybean; [15]): 90
- Plant response rating (scale of 0 to 100), Oilseed Rape (oilseed rape; Postemergence, 16 g ai/ha): 20
- Oilseed Rape plant response rating (oilseed rape; Postemergence, 31 g ai/ha): 50
- Oilseed Rape plant response rating (oilseed rape; postemergence, 62 g ai/ha): 50
- Plant response rating, Oilseed Rape (oilseed rape; [17]): 60
- Plant response rating (scale of 0 to 100), Oat, Wild (oat, wild; Postemergence, 16 g ai/ha): 5
- Oat, Wild plant response rating (oat, wild; Postemergence, 31 g ai/ha): 5
- Oat, Wild plant response rating (oat, wild; postemergence, 62 g ai/ha): 5
- Plant response rating, Oat, Wild (oat, wild; [17]): 25
- Plant response rating (scale of 0 to 100), Kochia (kochia; Postemergence, 16 g ai/ha): 30
- Kochia plant response rating (kochia; Postemergence, 31 g ai/ha): 60
- Kochia plant response rating (kochia; postemergence, 62 g ai/ha): 60
- Plant response rating, Kochia (kochia; [17]): 90
